{"source": "patent US9513294B2", "about": "“Megastokes amino-triazolyl-BODIPY compounds and applications to live neuron staining and human serum albumin FA1 drug site probing” (National University of Singapore, priority 2012, dated 2016)", "data": [{"test": "Absorbance and fluorescence emission spectra (SpectraMax M2)", "format": "physicochemical", "conditions": "BDC library, Table 2", "procedure": "(§1) BDC-8 (Blue): absorbance λmax=473 nm, emission λmax=585 nm; MK101-8 (Green): absorbance λmax=474 nm, emission λmax=563 nm; MKHA374-48 (Yellow): absorbance λmax=468 nm, λem=557 nm. The corresponding spectra of a reported BODIPY (BD-27; Red) are also included for comparison: absorbance λmax=551 nm, emission λmax=568 nm. The structures of BDC-8, MK101-8, MKHA374-48 and BD-27 are also depicted.\n(§2) ^1H-NMR, ^19F-NMR and ^13C-NMR spectra were recorded on Bruker ACF300 (300 MHz), DPX300 (300 MHz) and AMX500 (500 MHz) spectrometers. High resolution mass spectra (ESI) were obtained on a Finnigan/MAT 95XL-T spectrometer. Spectroscopic and quantum yield data were measured on a SpectraMax M2 spectrophotometer (Molecular Devices). Data analysis was performed using GraphPrism 5.0. Analytical characterization was performed on a HPLC-MS (Agilent-1200 series) with a DAD detector and a single quadrupole mass spectrometer (6130 series) with an ESI probe. Analytical HPLC method: eluents, A: H2O (0.1% HCOOH), B: CH3CN (0.1% HCOOH), gradient 5% B to 95% B (10 min). Reverse-phase Phenomenex C18 Luna column (4.6×50 mm^2, 3.5 […]), flow rate: 1 mL/min.", "units": {"λmax Absorp.": "nm", "λmax Emission": "nm"}, "values": [{"smiles": "COc1cccc(-c2cn(-c3ccc4n3[B-](F)(F)[N+]3=C(N5CCCCC5)C=CC3=C4c3ccc(N)cc3)nn2)c1", "note": "[BDC-27]", "λmax Absorp.": 472, "λmax Emission": 565}, {"smiles": "CCCCCc1ccc(-c2cn(-c3ccc4n3[B-](F)(F)[N+]3=C(N5CCCCC5)C=CC3=C4c3ccc(N)cc3)nn2)cc1", "note": "[BDC-29]", "λmax Absorp.": 471, "λmax Emission": 586}, {"smiles": "Nc1ccc(C2=C3C=CC(N4CCCCC4)=[N+]3[B-](F)(F)n3c2ccc3-n2cc(-c3cc(C(F)(F)F)cc(C(F)(F)F)c3)nn2)cc1", "note": "[BDC-30]", "λmax Absorp.": 466, "λmax Emission": 547}, {"smiles": "Nc1ccc(C2=C3C=CC(N4CCCCC4)=[N+]3[B-](F)(F)n3c2ccc3-n2cc(-c3cccc(F)c3)nn2)cc1", "note": "[BDC-31]", "λmax Absorp.": 470, "λmax Emission": 582}, {"smiles": "CC(C)CCc1cn(-c2ccc3n2[B-](F)(F)[N+]2=C(N4CCCCC4)C=CC2=C3c2ccc(N)cc2)nn1", "note": "[BDC-36]", "λmax Absorp.": 476, "λmax Emission": 590}, {"smiles": "Nc1ccc(C2=C3C=CC(N4CCCCC4)=[N+]3[B-](F)(F)n3c2ccc3-n2cc(C3=CCCCC3)nn2)cc1", "note": "[BDC-37]", "λmax Absorp.": 474, "λmax Emission": 579}, {"smiles": "CCCCc1cn(-c2ccc3n2[B-](F)(F)[N+]2=C(N4CCCCC4)C=CC2=C3c2ccc(N)cc2)nn1", "note": "[BDC-42]", "λmax Absorp.": 473, "λmax Emission": 584}, {"smiles": "CC(C)Cc1cn(-c2ccc3n2[B-](F)(F)[N+]2=C(N4CCCCC4)C=CC2=C3c2ccc(N)cc2)nn1", "note": "[BDC-43]", "λmax Absorp.": 476, "λmax Emission": 589}, {"smiles": "CCCCCCCCc1cn(-c2ccc3n2[B-](F)(F)[N+]2=C(N4CCCCC4)C=CC2=C3c2ccc(N)cc2)nn1", "note": "[BDC-44]", "λmax Absorp.": 475, "λmax Emission": 583}, {"smiles": "Cc1cccc(-c2cn(-c3ccc4n3[B-](F)(F)[N+]3=C(N5CCCCC5)C=CC3=C4c3ccc(N)cc3)nn2)c1", "note": "[BDC-45]", "λmax Absorp.": 469, "λmax Emission": 556}, {"smiles": "CCc1ccc(-c2cn(-c3ccc4n3[B-](F)(F)[N+]3=C(N5CCCCC5)C=CC3=C4c3ccc(N)cc3)nn2)cc1", "note": "[BDC-46]", "λmax Absorp.": 473, "λmax Emission": 585}, {"smiles": "CCCCCCc1cn(-c2ccc3n2[B-](F)(F)[N+]2=C(N4CCCCC4)C=CC2=C3c2ccc(N)cc2)nn1", "note": "[BDC-47]", "λmax Absorp.": 473, "λmax Emission": 574}, {"smiles": "CCCc1cn(-c2ccc3n2[B-](F)(F)[N+]2=C(N4CCCCC4)C=CC2=C3c2ccc(N)cc2)nn1", "note": "[BDC-48]", "λmax Absorp.": 476, "λmax Emission": 582}, {"smiles": "CCCCCCCCCCc1cn(-c2ccc3n2[B-](F)(F)[N+]2=C(N4CCCCC4)C=CC2=C3c2ccc(N)cc2)nn1", "note": "[BDC-49]", "λmax Absorp.": 475, "λmax Emission": 589}, {"smiles": "CCCCCCCc1cn(-c2ccc3n2[B-](F)(F)[N+]2=C(N4CCCCC4)C=CC2=C3c2ccc(N)cc2)nn1", "note": "[BDC-50]", "λmax Absorp.": 475, "λmax Emission": 577}, {"smiles": "Nc1ccc(C2=C3C=CC(N4CCCCC4)=[N+]3[B-](F)(F)n3c2ccc3-n2cc(C3(O)CCCC3)nn2)cc1", "note": "[BDC-67]", "λmax Absorp.": 478, "λmax Emission": 595}, {"smiles": "CCCCCC(O)c1cn(-c2ccc3n2[B-](F)(F)[N+]2=C(N4CCCCC4)C=CC2=C3c2ccc(N)cc2)nn1", "note": "(stereo not drawn) [BDC-69]", "λmax Absorp.": 476, "λmax Emission": 586}, {"smiles": "Nc1ccc(C2=C3C=CC(N4CCCCC4)=[N+]3[B-](F)(F)n3c2ccc3-n2cc(CO)nn2)cc1", "note": "[BDC-70]", "λmax Absorp.": 474, "λmax Emission": 586}]}, {"test": "Absorbance and fluorescence emission spectra (SpectraMax M2)", "format": "physicochemical", "conditions": "BDCAC library, Table 3", "procedure": "as §1, §2", "units": {"λmax Absorp.": "nm", "λmax Emission": "nm"}, "values": [{"smiles": "CC(=O)Nc1ccc(C2=C3C=CC(N4CCCCC4)=[N+]3[B-](F)(F)n3c2ccc3-n2cc(C(C)(C)C)nn2)cc1", "note": "[BDCAC-1]", "λmax Absorp.": 469, "λmax Emission": 580}]}, {"test": "Quantum yield measurements versus Acridine Yellow in EtOH", "format": "physicochemical", "conditions": "BDC library, Table 2; excitation 460 nm", "procedure": "as §2\n(§3) Quantum yields were calculated by measuring the integrated emission area of the fluorescent spectra and comparing to the area measured for Acridine Yellow in EtOH when excited at 460 nm (Φfluorescence^AcridineYellow=0.47). Quantum yields for the amino-triazolyl-BODIPYs were calculated using the equation below, where F represents the area of fluorescent emission, η is the refractive index of the solvent, and Abs is absorbance at the excitation wavelength selected for standards and samples. Emission was integrated between 510 and 700 nm.", "units": {"φ (quantum yield)": "%"}, "values": [{"smiles": "COc1cccc(-c2cn(-c3ccc4n3[B-](F)(F)[N+]3=C(N5CCCCC5)C=CC3=C4c3ccc(N)cc3)nn2)c1", "note": "[BDC-27]", "φ (quantum yield)": 0.17}, {"smiles": "CCCCCc1ccc(-c2cn(-c3ccc4n3[B-](F)(F)[N+]3=C(N5CCCCC5)C=CC3=C4c3ccc(N)cc3)nn2)cc1", "note": "[BDC-29]", "φ (quantum yield)": 0.23}, {"smiles": "Nc1ccc(C2=C3C=CC(N4CCCCC4)=[N+]3[B-](F)(F)n3c2ccc3-n2cc(-c3cc(C(F)(F)F)cc(C(F)(F)F)c3)nn2)cc1", "note": "[BDC-30]", "φ (quantum yield)": 0.57}, {"smiles": "Nc1ccc(C2=C3C=CC(N4CCCCC4)=[N+]3[B-](F)(F)n3c2ccc3-n2cc(-c3cccc(F)c3)nn2)cc1", "note": "[BDC-31]", "φ (quantum yield)": 0.11}, {"smiles": "CC(C)CCc1cn(-c2ccc3n2[B-](F)(F)[N+]2=C(N4CCCCC4)C=CC2=C3c2ccc(N)cc2)nn1", "note": "[BDC-36]", "φ (quantum yield)": 0.11}, {"smiles": "Nc1ccc(C2=C3C=CC(N4CCCCC4)=[N+]3[B-](F)(F)n3c2ccc3-n2cc(C3=CCCCC3)nn2)cc1", "note": "[BDC-37]", "φ (quantum yield)": 0.12}, {"smiles": "CCCCc1cn(-c2ccc3n2[B-](F)(F)[N+]2=C(N4CCCCC4)C=CC2=C3c2ccc(N)cc2)nn1", "note": "[BDC-42]", "φ (quantum yield)": 0.19}, {"smiles": "CC(C)Cc1cn(-c2ccc3n2[B-](F)(F)[N+]2=C(N4CCCCC4)C=CC2=C3c2ccc(N)cc2)nn1", "note": "[BDC-43]", "φ (quantum yield)": 0.10}, {"smiles": "CCCCCCCCc1cn(-c2ccc3n2[B-](F)(F)[N+]2=C(N4CCCCC4)C=CC2=C3c2ccc(N)cc2)nn1", "note": "[BDC-44]", "φ (quantum yield)": 0.13}, {"smiles": "Cc1cccc(-c2cn(-c3ccc4n3[B-](F)(F)[N+]3=C(N5CCCCC5)C=CC3=C4c3ccc(N)cc3)nn2)c1", "note": "[BDC-45]", "φ (quantum yield)": 0.42}, {"smiles": "CCc1ccc(-c2cn(-c3ccc4n3[B-](F)(F)[N+]3=C(N5CCCCC5)C=CC3=C4c3ccc(N)cc3)nn2)cc1", "note": "[BDC-46]", "φ (quantum yield)": 0.10}, {"smiles": "CCCCCCc1cn(-c2ccc3n2[B-](F)(F)[N+]2=C(N4CCCCC4)C=CC2=C3c2ccc(N)cc2)nn1", "note": "[BDC-47]", "φ (quantum yield)": 0.16}, {"smiles": "CCCc1cn(-c2ccc3n2[B-](F)(F)[N+]2=C(N4CCCCC4)C=CC2=C3c2ccc(N)cc2)nn1", "note": "[BDC-48]", "φ (quantum yield)": 0.10}, {"smiles": "CCCCCCCCCCc1cn(-c2ccc3n2[B-](F)(F)[N+]2=C(N4CCCCC4)C=CC2=C3c2ccc(N)cc2)nn1", "note": "[BDC-49]", "φ (quantum yield)": 0.12}, {"smiles": "CCCCCCCc1cn(-c2ccc3n2[B-](F)(F)[N+]2=C(N4CCCCC4)C=CC2=C3c2ccc(N)cc2)nn1", "note": "[BDC-50]", "φ (quantum yield)": 0.13}, {"smiles": "Nc1ccc(C2=C3C=CC(N4CCCCC4)=[N+]3[B-](F)(F)n3c2ccc3-n2cc(C3(O)CCCC3)nn2)cc1", "note": "[BDC-67]", "φ (quantum yield)": 0.09}, {"smiles": "CCCCCC(O)c1cn(-c2ccc3n2[B-](F)(F)[N+]2=C(N4CCCCC4)C=CC2=C3c2ccc(N)cc2)nn1", "note": "(stereo not drawn) [BDC-69]", "φ (quantum yield)": 0.13}, {"smiles": "Nc1ccc(C2=C3C=CC(N4CCCCC4)=[N+]3[B-](F)(F)n3c2ccc3-n2cc(CO)nn2)cc1", "note": "[BDC-70]", "φ (quantum yield)": 0.13}]}, {"test": "Quantum yield measurements versus Acridine Yellow in EtOH", "format": "physicochemical", "conditions": "BDCAC library, Table 3; excitation 460 nm", "procedure": "as §2, §3", "units": {"φ (quantum yield)": "%"}, "values": [{"smiles": "CC(=O)Nc1ccc(C2=C3C=CC(N4CCCCC4)=[N+]3[B-](F)(F)n3c2ccc3-n2cc(C(C)(C)C)nn2)cc1", "note": "[BDCAC-1]", "φ (quantum yield)": 1.5}]}]}
